According to paper PMC11274943, “Discovery of Benzisothiazolone Derivatives as Bifunctional Inhibitors of HIV-1 Reverse Transcriptase DNA Polymerase and Ribonuclease H Activities” (Biomolecules, 2024):

Tests used:
HIV-1 = assay: Antiviral activity (HIV-1 replication) in TZM-bl cells; assay type: cell-based; details: Human immunodeficiency virus 1, mean ± SD
Procedure: The genes for Y181C, Y181I, Y181V and Y181F were cloned into HIV-1LAI. NNRTI susceptibility was determined in TZM-bl cells, as described previously.
(§1) Next, we re-purchased 10 hit compounds with IC50 values < 1.0 µM for the inhibition of RT RNase H activity that were commercially available in sufficient quantities for further analysis. We assessed their antiviral activity and cytotoxicity in TZM-bl cells, as described previously.

[1] = Cytotoxicity in TZM-bl cells; assay type: cell-based; details: human, TZM-bl cell death
Procedure: as §1

[2] = test system: G190A HIV-1 RT DNA-dependent DNA polymerase activity; assay: biochemical; assay type: biochemical; details: G190A RT; fold resistance IC50 mutant/IC50 WT

Structure (SMILES): Cc1ccc(-n2sc3ccccc3c2=O)cc1S(=O)(=O)N1CCCCC1 [Compound 1, 2-(4-methyl-3-(piperidin-1-ylsulfonyl)phenyl)benzo[d]isothiazol-3(2H)-one]
- EC50 (HIV-1): 1.68 ± 0.94 µM
- CC50 [1]: ≥ 100 µM

Structure (SMILES): CCN(CC)S(=O)(=O)c1cccc(-n2sc3ccccc3c2=O)c1 [Compound 4, N,N-diethyl-3-(3-oxobenzo[d]isothiazol-2(3H)-yl)benzenesulfonamide]
- Inhibition of RT DNA polymerase activity Fold-R [2]: 1.5
- EC50 (HIV-1): 3.27 ± 0.49 µM
- CC50 [1]: ≥ 100 µM

Structure (SMILES): CCOC(=O)Cc1csc(-n2sc3ccccc3c2=O)n1 [Compound 2, ethyl 2-(2-(3-oxobenzo[d]isothiazol-2(3H)-yl)thiazol-4-yl)acetate]
- Inhibition of RT DNA polymerase activity Fold-R [2]: 0.7
- EC50 (HIV-1): 2.68 ± 0.54 µM
- CC50 [1]: ≥ 100 µM
